The results in this text go back to US12448389B2, “BRM targeting compounds and associated methods of use” (Prelude Therapeutics Incorporated, priority 2020, dated 2025).

The target of one test is T1, SMARCA2 (Homo sapiens, UniProt P51531).
T1 construct: endogenous in cells; host or cells: NCI-H520 (given as NCIH520 / NCIH1520 / H520)
As to the kind of experiment: SMARCA2 protein degradation in NCIH520 cells by In Cell Western (ICW). The format is cell-based. As to conditions: highest concentration 1 μM; for DC50: H520 cells, overnight incubation (maximum 18 hours), read-out: DC50 (SM2_H520): SMARCA2 degradation potency; for Dmax: NCI-H520, overnight incubation (maximum 18 hours), read-out: Dmax % (SM2_H520): maximum SMARCA2 degradation within the concentrations tested. The procedure: (§1) Compounds were dissolved in DMSO to make 10 mM stock and 3-fold series dilutions were further conducted keeping the highest concentration 10 μM. NCIH11693 and NCIH1520 cells were maintained in PRMI 1640 medium (Corning Cellgro, Catalog #: 10-040-CV) supplemented with 10% v/v FBS (GE Healthcare, Catalog #: SH30910.03) by splitting 1:3 twice a week.
(§2) SMACRA2 and SMARCA4 Protein Degradation DC50 Values in NCIH1693 and NCIH520 Cells by in Cell Western (ICW) Analysis.
(§3) Cells were trypsinized and 30 thousand cells/well were seeded into 384-well plates and were allowed to grow for 1-2 hours at 37° C. Eight-point, 3-fold serial dilutions of compounds from 0.5 mM stocks were added to the cells (using digital Dispenser D300-Tecan, keeping highest concentration 1 μM and normalizing with DMSO at the highest dispensed volume). Plates were incubated at 37° C. for overnight (maximum 18 hours). Cells incubated with DMSO was used as a vehicle control.
(§4) To perform In Cell Western, medium was removed from all the wells leaving cells attached to the surface. After removing the medium, cells were fixed within the plates with 40 μL of 4% formaldehyde by incubating at room temperature for 30 minutes, and then permeabilized with wash buffer (1×PBS with 0.1% Triton X-100) by washing the plate 5 times with 50 μL/well. Before labeling with primary antibodies, cells were blocked with 30 μL/well of blocking buffer (Licor Odyssey blocking buffer PBS #927-40000) for 30 minutes at room temperature. To measure SMARCA2 or SMARCA4 proteins, cells were labeled with 20 μL/well of anti SMARCA2 or SMACRA4 antibodies (Cell Signaling BRM #11966S 1:800, Cell Signaling BRG #49360S 1:800) diluted in Li-Cor Odyssey blocking buffer-PBS #927-40000, followed by overnight incubation at 4° C.
(§5) The next day, plates were washed 5×5 minutes with 50 μL/well of washing buffer to remove all the excess primary antibody and then 20 μL from a mixture of secondary antibody and fluorescent DNA specific dye (Goat anti rabbit 1:500 IRDye-800CW #92632211, and DRAQ5™ 1:2000-#ab108410) was added to each well. Plates were incubated for 1 hour at room temperature with gentle rocking. Cells were washed 5 times with 50 μL/well wash buffer, followed by one last wash with DI water, followed by 10 mins drying at 37° C. oven before scanning. Plates were scanned using Li-Cor Odyssey CLx imaging system to acquire integrated intensities at 700 nm and 800 nm. SMARCA signals were normalized to total cell count and then these normalized values were used to calculate the percent degradation relative to DMSO control and maximum inhibition. DC50s were calculated by using the GraphPad Prism4 program based on sigmoidal dose response equation ([Inhibitor] vs. normalized response-Variable slope).
(§6) In Table 36, the DC50/Dmax% (SM2_H520) refers to SMARCA2 degradation potency/maximum SMARCA2 degradation within the concentrations in H520 cells and DC50/Dmax% (SM4_H520) refers to SMARCA4 degradation potency/maximum SMARCA4 degradation within the concentrations tested in H520 cells.

For the next test, the target named is T2, SMARCA4 (Homo sapiens, UniProt P51532).
T2 construct: endogenous in cells; host or cells: NCI-H520 (given as NCIH520 / NCIH1520 / H520)
T2 sequence (P51532 whole entry): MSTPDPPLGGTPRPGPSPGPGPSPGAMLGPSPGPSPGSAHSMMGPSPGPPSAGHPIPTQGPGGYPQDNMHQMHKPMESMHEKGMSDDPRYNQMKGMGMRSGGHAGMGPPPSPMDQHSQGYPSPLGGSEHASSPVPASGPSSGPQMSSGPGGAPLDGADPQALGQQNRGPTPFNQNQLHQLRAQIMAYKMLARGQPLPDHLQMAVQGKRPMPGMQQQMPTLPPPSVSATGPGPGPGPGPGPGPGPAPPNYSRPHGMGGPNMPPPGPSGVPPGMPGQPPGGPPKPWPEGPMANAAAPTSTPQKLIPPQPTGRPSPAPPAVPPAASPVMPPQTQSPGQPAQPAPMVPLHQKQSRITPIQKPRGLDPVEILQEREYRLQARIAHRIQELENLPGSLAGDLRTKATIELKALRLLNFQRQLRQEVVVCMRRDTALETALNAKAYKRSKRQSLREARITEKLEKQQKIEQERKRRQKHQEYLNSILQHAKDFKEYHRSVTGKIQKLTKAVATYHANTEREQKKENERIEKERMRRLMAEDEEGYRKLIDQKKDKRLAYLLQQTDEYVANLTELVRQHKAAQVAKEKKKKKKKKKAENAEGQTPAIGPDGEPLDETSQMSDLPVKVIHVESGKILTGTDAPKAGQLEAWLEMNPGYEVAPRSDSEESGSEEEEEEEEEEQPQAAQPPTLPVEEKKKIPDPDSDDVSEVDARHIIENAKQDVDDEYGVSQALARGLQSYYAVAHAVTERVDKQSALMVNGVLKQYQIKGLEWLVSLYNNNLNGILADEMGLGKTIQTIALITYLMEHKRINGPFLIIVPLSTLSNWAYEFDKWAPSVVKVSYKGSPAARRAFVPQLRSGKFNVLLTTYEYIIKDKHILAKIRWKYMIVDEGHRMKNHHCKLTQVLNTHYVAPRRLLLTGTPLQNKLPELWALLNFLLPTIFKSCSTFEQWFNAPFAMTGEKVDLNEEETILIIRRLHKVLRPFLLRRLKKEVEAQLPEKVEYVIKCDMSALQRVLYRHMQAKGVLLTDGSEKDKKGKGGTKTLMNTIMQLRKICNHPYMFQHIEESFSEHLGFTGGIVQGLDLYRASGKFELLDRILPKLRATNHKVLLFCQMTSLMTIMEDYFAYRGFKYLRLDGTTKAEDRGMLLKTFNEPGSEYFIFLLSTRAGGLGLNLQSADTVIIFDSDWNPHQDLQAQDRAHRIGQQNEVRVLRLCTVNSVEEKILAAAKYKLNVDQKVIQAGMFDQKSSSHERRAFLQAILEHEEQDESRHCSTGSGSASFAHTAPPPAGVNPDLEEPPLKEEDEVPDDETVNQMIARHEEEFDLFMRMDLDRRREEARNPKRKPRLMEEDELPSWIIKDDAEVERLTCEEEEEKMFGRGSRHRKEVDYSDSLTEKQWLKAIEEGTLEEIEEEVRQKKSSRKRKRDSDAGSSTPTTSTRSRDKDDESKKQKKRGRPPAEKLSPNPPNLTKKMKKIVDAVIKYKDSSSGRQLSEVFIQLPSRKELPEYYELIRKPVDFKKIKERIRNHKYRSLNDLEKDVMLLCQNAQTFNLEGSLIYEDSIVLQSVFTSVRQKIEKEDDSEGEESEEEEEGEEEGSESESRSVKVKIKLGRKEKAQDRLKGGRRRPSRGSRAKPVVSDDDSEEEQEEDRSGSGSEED
Kind of test: SMARCA4 protein degradation in NCIH520 cells by In Cell Western (ICW). It is filed as cell-based. As to conditions: highest concentration 1 μM; for DC50: H520 cells, overnight incubation (maximum 18 hours), read-out: DC50 (SM4_H520): SMARCA4 degradation potency; for Dmax: NCI-H520, overnight incubation (maximum 18 hours), read-out: Dmax % (SM4_H520): maximum SMARCA4 degradation within the concentrations tested. The procedure:
as §1, §2, §3, §4, §5, §6

T1 sequence (P51531 whole entry): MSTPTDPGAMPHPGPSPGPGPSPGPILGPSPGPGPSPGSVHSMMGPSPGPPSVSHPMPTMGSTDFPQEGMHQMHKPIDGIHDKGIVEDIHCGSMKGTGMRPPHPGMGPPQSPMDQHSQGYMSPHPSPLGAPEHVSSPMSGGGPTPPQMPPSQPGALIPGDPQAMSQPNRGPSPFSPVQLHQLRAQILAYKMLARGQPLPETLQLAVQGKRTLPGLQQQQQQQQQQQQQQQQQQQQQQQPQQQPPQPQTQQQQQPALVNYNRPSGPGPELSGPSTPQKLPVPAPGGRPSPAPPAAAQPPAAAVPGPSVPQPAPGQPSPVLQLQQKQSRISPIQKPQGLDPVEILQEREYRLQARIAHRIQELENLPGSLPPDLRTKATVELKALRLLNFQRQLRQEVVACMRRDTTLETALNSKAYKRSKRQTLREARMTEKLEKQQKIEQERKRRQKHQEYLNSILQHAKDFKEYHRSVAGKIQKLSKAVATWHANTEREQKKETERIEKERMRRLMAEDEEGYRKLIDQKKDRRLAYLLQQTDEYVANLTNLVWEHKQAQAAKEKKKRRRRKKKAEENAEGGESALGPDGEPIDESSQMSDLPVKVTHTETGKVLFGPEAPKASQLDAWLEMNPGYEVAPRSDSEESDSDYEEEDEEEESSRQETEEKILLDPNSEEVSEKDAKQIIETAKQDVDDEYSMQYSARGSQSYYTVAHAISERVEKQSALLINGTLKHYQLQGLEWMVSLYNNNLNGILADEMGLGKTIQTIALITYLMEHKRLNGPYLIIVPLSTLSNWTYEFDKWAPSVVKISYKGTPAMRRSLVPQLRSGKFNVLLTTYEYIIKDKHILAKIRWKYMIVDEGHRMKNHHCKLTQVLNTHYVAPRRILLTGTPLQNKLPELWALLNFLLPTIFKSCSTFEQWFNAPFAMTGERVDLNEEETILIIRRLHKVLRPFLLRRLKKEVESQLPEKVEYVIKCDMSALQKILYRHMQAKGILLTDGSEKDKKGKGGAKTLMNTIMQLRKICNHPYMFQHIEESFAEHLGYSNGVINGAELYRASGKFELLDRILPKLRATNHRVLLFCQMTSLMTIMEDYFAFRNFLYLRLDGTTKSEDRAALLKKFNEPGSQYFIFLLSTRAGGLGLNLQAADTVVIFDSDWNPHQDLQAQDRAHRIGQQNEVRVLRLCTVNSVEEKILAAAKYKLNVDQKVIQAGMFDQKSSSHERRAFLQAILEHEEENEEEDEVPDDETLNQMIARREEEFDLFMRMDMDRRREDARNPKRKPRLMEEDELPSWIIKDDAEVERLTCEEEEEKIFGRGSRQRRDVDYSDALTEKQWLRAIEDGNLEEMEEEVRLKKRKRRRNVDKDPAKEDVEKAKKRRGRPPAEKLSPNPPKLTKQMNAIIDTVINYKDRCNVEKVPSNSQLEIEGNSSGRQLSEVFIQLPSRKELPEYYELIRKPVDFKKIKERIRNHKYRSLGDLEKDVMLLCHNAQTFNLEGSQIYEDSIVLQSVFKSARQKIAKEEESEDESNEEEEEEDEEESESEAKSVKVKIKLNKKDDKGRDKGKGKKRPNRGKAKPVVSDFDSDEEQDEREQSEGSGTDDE

Consider `O=C1CCC(N2Cc3cc(CCN4CCC(c5cnc(N6CCN7c8cc(-c9ccccc9O)nnc8NC[C@H]7C6)nc5)CC4)ccc3C2=O)C(=O)N1` (stereo partly drawn) [Example 1, 3-(5-(2-(4-(2-((S)-2-(2-hydroxyphenyl)-5,6,6a,7,9,10-hexahydro-8H-pyrazino [1′,2′:4,5]pyrazino[2,3-c]pyridazin-8-yl)pyrimidin-5-yl)piperidin-1-yl)ethyl)-1-oxoiso-indolin-2-yl)piperidine-2,6-dione], for which the half-maximal degradation concentration (DC50) at SMARCA2 and at SMARCA4 was less than 100 nM throughout. Also, the Dmax at SMARCA2 and on SMARCA4 was greater than 75% each time.

`O=C1CCC(N2Cc3cc(CCCN4CCC(c5cnc(N6CCN7c8cc(-c9ccccc9O)nnc8NC[C@@H]7C6)nc5)CC4)ccc3C2=O)C(=O)N1` (stereo partly drawn) [Example 2, 3-(5-(3-(4-(2-((R)-2-(2-hydroxyphenyl)-5,6,6a,7,9,10-hexahydro-8H-pyrazino[1′,2′:4,5]pyrazino[2,3-c]pyridazin-8-yl)pyrimidin-5-yl)piperidin-1-yl)propyl)-1-oxoisoindolin-2-yl)piperidine-2,6-dione]: at SMARCA2, the DC50 is less than 100 nM and the Dmax was greater than 75%. On SMARCA4, the DC50 was less than 100 nM and the Dmax is greater than 75%.

`O=C1CCC(N2Cc3cc(CCCN4CCC(CCc5cnc(N6CCN7c8cc(-c9ccccc9O)nnc8NC[C@@H]7C6)nc5)CC4)ccc3C2=O)C(=O)N1` (stereo partly drawn) [Example 3, 3-(5-(3-(4-(2-(2-((R)-2-(2-hydroxyphenyl)-5,6,6a,7,9,10-hexahydro-8H-pyrazino[1′,2′:4,5]pyrazino[2,3-c]pyridazin-8-yl)pyrimidin-5-yl)ethyl)piperidin-1-yl)propyl)-1-oxoisoindolin-2-yl)piperidine-2,6-dione]: at SMARCA2, the DC50 is less than 100 nM and the Dmax was greater than 75%. Moreover, on SMARCA4, the half-maximal degradation concentration (DC50) was less than 100 nM and the Dmax was greater than 75%.

As for `O=C1CCC(N2Cc3cc(CCN4CCC(c5cnc(N6CCN7c8cc(-c9ccccc9O)nnc8NC[C@@H]7C6)nc5)CC4)ccc3C2=O)C(=O)N1` (stereo partly drawn) [Example 4, 3-(5-(2-(4-(2-((R)-2-(2-hydroxyphenyl)-5,6,6a,7,9,10-hexahydro-8H-pyrazino[1′,2′:4,5]pyrazino[2,3-c]pyridazin-8-yl)pyrimidin-5-yl)piperidin-1-yl)ethyl)-1-oxoisoindolin-2-yl)piperidine-2,6-dione], the 50% degradation concentration (DC50) at SMARCA2 and on SMARCA4 was less than 100 nM in each case. For the same compound, the Dmax on SMARCA2 and on SMARCA4 was greater than 75% throughout.

With `O=C1CCC(N2Cc3cc(CCN4CCC(CCc5cnc(N6CCN7c8cc(-c9ccccc9O)nnc8NC[C@@H]7C6)nc5)CC4)ccc3C2=O)C(=O)N1` (stereo partly drawn) [Example 5, 3-(5-(2-(4-(2-(2-((R)-2-(2-hydroxyphenyl)-5,6,6a,7,9,10-hexahydro-8H-pyrazino[1′,2′:4,5]pyrazino[2,3-c]pyridazin-8-yl)pyrimidin-5-yl)ethyl)piperidin-1-yl)ethyl)-1-oxoisoindolin-2-yl)piperidine-2,6-dione], at SMARCA2, the DC50 was less than 100 nM and the Dmax is greater than 75%. At SMARCA4, the DC50 was less than 100 nM and the Dmax is greater than 75%.

Take `O=C1CCC(N2Cc3cc(CCN4CC=C(c5cnc(N6CCN7c8cc(-c9ccccc9O)nnc8NC[C@H]7C6)nc5)CC4)ccc3C2=O)C(=O)N1` (stereo partly drawn) [Example 6, 3-(5-(2-(4-(2-((S)-2-(2-hydroxyphenyl)-5,6,6a,7,9,10-hexahydro-8H-pyrazino[1′,2′:4,5]pyrazino[2,3-c]pyridazin-8-yl)pyrimidin-5-yl)-3,6-dihydropyridin-1(2H)-yl)ethyl)-1-oxoisoindolin-2-yl)piperidine-2,6-dione]: the half-maximal degradation concentration (DC50) at SMARCA2 and on SMARCA4 was less than 100 nM in each case. In addition, the Dmax on SMARCA2 and at SMARCA4 was greater than 75% each time.

For the compound `O=C1CCC(N2Cc3cc(CCN4CCC(/C=C/c5cnc(N6CCN7c8cc(-c9ccccc9O)nnc8NC[C@H]7C6)nc5)CC4)ccc3C2=O)C(=O)N1` (stereo partly drawn) [Example 7, 3-(5-(2-(4-((E)-2-(2-((S)-2-(2-hydroxyphenyl)-5,6,6a,7,9,10-hexahydro-8H-pyrazino[1′,2′:4,5]pyrazino[2,3-c]pyridazin-8-yl)pyrimidin-5-yl)vinyl)piperidin-1-yl)ethyl)-1-oxoisoindolin-2-yl)piperidine-2,6-dione], on SMARCA2, the DC50 was less than 100 nM and the Dmax is greater than 75%. Also, at SMARCA4, the half-maximal degradation concentration (DC50) was less than 100 nM and the Dmax is greater than 75%.

On to `O=C1CCC(N2Cc3cc(CCN4CCC(OCCN5CCC(N6CCN7c8cc(-c9ccccc9O)nnc8NC[C@H]7C6)CC5)CC4)ccc3C2=O)C(=O)N1` (stereo partly drawn) [Example 8, 3-(5-(2-(4-(2-(4-((S)-2-(2-hydroxyphenyl)-5,6,6a,7,9,10-hexahydro-8H-pyrazino[1′,2′:4,5]pyrazino[2,3-c]pyridazin-8-yl)piperidin-1-yl)ethoxy)piperidin-1-yl)ethyl)-1-oxoisoindolin-2-yl)piperidine-2,6-dione], for which, on SMARCA2, the DC50 was less than 100 nM and the Dmax was greater than 75%. At SMARCA4, the DC50 was less than 100 nM and the Dmax is greater than 75%.

Consider `O=C1CCC(N2Cc3cc(CN4CCC(OCCN5CCC(N6CCN7c8cc(-c9ccccc9O)nnc8NC[C@H]7C6)CC5)CC4)ccc3C2=O)C(=O)N1` (stereo partly drawn) [Example 9, 3-(5-((4-(2-(4-((S)-2-(2-hydroxyphenyl)-5,6,6a,7,9,10-hexahydro-8H-pyrazino[1′,2′:4,5]pyrazino[2,3-c]pyridazin-8-yl)piperidin-1-yl)ethoxy)piperidin-1-yl)methyl)-1-oxoisoindolin-2-yl)piperidine-2,6-dione], for which, on SMARCA2, the DC50 was less than 100 nM and the Dmax is greater than 75%. In addition, at SMARCA4, the 50% degradation concentration (DC50) is less than 100 nM and the Dmax lay in the range of 50 to 75%.

Consider `O=C1CCC(N2Cc3cc(CN4CCC(c5cnc(N6CCN7c8cc(-c9ccccc9O)nnc8NC[C@H]7C6)nc5)CC4)ccc3C2=O)C(=O)N1` (stereo partly drawn) [Example 10, 3-(5-((4-(2-((S)-2-(2-hydroxyphenyl)-5,6,6a,7,9,10-hexahydro-8H-pyrazino[1′,2′:4,5]pyrazino[2,3-c]pyridazin-8-yl)pyrimidin-5-yl)piperidin-1-yl)methyl)-1-oxoisoindolin-2-yl)piperidine-2,6-dione], for which, on SMARCA2, the DC50 was less than 100 nM and the Dmax was greater than 75%. For the same compound, on SMARCA4, the DC50 is less than 100 nM and the Dmax is 50 to 75%.

With `O=C1CCC(N2C(=O)c3ccc(N4CCN(CCCN5CCC(N6CCN7c8cc(-c9ccccc9O)nnc8NC[C@H]7C6)CC5)CC4)cc3C2=O)C(=O)N1` (stereo partly drawn) [Example 11, 2-(2,6-Dioxopiperidin-3-yl)-5-(4-(3-(4-((S)-2-(2-hydroxyphenyl)-5,6,6a,7,9,10-hexahydro-8H-pyrazino[1′,2′:4,5]1pyrazino[2,3-c]pyridazin-8-yl)piperidin-1-yl)propyl)piperazin-1-yl) isoindoline-1,3-dione], on SMARCA2, the DC50 was less than 100 nM and the Dmax was greater than 75%. For the same compound, on SMARCA4, the DC50 was less than 100 nM and the Dmax was greater than 75%.

Turning to `O=C1CCC(N2C(=O)c3ccc(N4CCN(CCN5CCC(N6CCN7c8cc(-c9ccccc9O)nnc8NC[C@H]7C6)C5)CC4)cc3C2=O)C(=O)N1` (stereo partly drawn) [Example 12, 2-(2,6-Dioxopiperidin-3-yl)-5-(4-(2-(3-((S)-2-(2-hydroxyphenyl)-5,6,6a,7,9,10-hexahydro-8H-pyrazino[1′,2′:4,5]pyrazino[2,3-c]pyridazin-8-yl)pyrrolidin-1-yl)ethyl)piperazin-1-yl) isoindoline-1,3-dione], at SMARCA2, the 50% degradation concentration (DC50) is less than 100 nM and the Dmax was greater than 75%. Moreover, on SMARCA4, the DC50 was less than 100 nM and the Dmax fell in the range of 50 to 75%.

As usually defined, the DC50 is the midpoint of the concentration-degradation curve.
